Reference: patent publication US20150175584A1, “Quinazolin-THF-amines as PDE1 inhibitors” (H. LUNDBECK A/S, priority 2013, published 2015)

Assays:
Type in all cases: biochemical
Conditions in all cases: 15 nM tritium labelled cAMP, 1 h at room temperature, SPA beads
PDE1C = PDE1C (Homo sapiens, UniProt Q14123); test: PDE1 Inhibition Assay, PDE1C (SPA)
Protocol: (§1) PDE1A, PDE1B and PDE1C assays were performed as follows: the assays was performed in 60 μL samples containing a fixed amount of the PDE1 enzym1 (sufficient to convert 20-25% of the cyclic nucleotide substrate), a buffer (50 mM HEPES pH 7.6; 10 mM MgCl2; 0.02% Tween20), 0.1 mg/ml BSA, 15 nM tritium labelled cAMP and varying amounts of inhibitors. Reactions were initiated by addition of the cyclic nucleotide substrate, and reactions were allowed to proceed for 1 h at room temperature before being terminated through mixing with 20 μL (0.2 mg) yttrium silicate SPA beads (PerkinElmer). The beads were allowed to settle for 1 h in the dark before the plates were counted in a Wallac 1450 Microbeta counter. The measured signals were converted to activity relative to an uninhibited control (100%) and IC50 values were calculated using XIFit (model 205, IDBS).

PDE1B = PDE1B (Homo sapiens, UniProt Q01064); test: PDE1 Inhibition Assay, PDE1B (SPA)
Protocol: as §1

PDE1A = PDE1A (Homo sapiens, UniProt P54750); test: PDE1 Inhibition Assay, PDE1A (SPA)
Protocol: as §1

Chain of PDE1B (Q01064 whole entry): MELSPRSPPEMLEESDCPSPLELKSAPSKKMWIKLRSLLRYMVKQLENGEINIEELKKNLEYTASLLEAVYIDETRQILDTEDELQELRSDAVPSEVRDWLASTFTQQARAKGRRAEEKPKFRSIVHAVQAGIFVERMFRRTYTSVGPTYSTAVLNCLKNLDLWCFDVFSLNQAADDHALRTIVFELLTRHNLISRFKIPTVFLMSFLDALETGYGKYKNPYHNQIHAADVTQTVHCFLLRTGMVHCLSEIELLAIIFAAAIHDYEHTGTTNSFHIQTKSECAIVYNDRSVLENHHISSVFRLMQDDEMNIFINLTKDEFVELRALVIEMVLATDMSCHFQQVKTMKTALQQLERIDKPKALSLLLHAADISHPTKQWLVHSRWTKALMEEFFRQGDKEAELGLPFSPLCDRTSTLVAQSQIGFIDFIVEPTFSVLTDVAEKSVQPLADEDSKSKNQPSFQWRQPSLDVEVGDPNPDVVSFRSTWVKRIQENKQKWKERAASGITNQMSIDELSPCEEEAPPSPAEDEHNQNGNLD
Chain of PDE1A (P54750 whole entry): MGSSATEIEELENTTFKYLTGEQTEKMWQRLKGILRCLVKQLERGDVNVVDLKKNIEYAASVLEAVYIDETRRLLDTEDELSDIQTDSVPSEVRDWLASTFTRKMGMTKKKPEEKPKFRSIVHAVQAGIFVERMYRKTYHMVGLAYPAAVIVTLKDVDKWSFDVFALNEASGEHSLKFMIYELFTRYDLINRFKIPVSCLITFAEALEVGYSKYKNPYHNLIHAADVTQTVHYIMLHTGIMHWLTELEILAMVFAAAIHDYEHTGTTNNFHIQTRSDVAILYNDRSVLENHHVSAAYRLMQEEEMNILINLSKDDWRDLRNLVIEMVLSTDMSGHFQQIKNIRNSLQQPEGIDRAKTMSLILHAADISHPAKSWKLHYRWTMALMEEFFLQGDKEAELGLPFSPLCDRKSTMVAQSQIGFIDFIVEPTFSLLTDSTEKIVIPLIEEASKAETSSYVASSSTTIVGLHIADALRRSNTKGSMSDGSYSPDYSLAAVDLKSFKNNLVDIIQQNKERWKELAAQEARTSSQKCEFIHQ
Chain of PDE1C (Q14123 whole entry): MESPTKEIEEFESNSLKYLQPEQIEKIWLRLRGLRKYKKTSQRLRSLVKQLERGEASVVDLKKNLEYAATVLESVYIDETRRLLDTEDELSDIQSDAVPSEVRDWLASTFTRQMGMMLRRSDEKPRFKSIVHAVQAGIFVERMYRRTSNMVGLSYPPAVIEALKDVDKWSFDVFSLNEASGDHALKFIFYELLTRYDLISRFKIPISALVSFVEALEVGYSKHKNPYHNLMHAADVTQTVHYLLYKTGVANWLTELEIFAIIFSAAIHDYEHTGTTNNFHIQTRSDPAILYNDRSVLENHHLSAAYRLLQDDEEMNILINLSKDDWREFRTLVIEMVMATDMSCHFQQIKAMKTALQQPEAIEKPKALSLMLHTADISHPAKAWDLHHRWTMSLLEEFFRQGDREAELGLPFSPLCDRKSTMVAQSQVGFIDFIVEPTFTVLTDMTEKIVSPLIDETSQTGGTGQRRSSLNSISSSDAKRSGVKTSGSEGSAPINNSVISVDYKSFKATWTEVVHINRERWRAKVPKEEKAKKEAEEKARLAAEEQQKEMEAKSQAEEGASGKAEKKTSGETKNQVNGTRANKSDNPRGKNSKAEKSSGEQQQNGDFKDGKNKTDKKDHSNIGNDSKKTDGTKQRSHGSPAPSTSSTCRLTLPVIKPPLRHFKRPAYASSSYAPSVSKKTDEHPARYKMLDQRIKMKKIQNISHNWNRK

Row | SMILES | IC50 (PDE1C) [nM] | IC50 (PDE1B) [nM] | IC50 (PDE1A) [nM]
1 | COc1ccc2c(NC3(C)CCOC3C)ncnc2c1OC (single isomer, unassigned) [5 Stereoisomer 2] | 400 | 87 | 240
2 | COc1ccc2c(N(CC3CC3)[C@@H]3CCOC3)ncnc2c1OC [Compound 15, (R)—N-(cyclopropylmethyl)-7,8-dimethoxy-N-(tetrahydrofuran-3-yl)quinazolin-4-amine] | 2100 | 820 | 2500
3 | COc1ccc2c(N(C)C3(C)CCOC3C)ncnc2c1OC (single isomer, unassigned) [20 Stereoisomer 2] | 27 | 4 | 26
4 | COc1ccc2c(N(C)C3(C)CCOC3C)ncnc2c1OC (single isomer, unassigned) [20 Stereoisomer 4] | 170 | 39 | 120
5 | COc1ccc2c(N[C@@H]3COC[C@H]3O)ncnc2c1OC (relative stereo) [Compound 18, trans-4-((7,8-dimethoxyquinazolin-4-yl)amino)tetrahydrofuran-3-ol] | 2600 | 1300 | 2300
6 | COc1ccc2c(N(C)C3CCOC3C)ncnc2c1OC (single isomer, unassigned) [22 Stereoisomer 3] | 1500 | 430 | 1100
7 | COc1ccc2c(N[C@@H]3COC[C@@H]3O)ncnc2c1OC (relative stereo) [Compound 19, cis-4-((7,8-dimethoxyquinazolin-4-yl)amino)tetrahydrofuran-3-ol] | – | 840 | 4600
8 | COc1ccc2c(NC3(C)CCOC3C)ncnc2c1OC (single isomer, unassigned) [5 Stereoisomer 1] | 1100 | 300 | 590
9 | COc1ccc2c(NC3CCOC3(C)C)ncnc2c1OC (single isomer, unassigned) [21 Stereoisomer 2] | 1600 | 260 | 1300
10 | COc1ccc2c(N(C)C3(C)CCOC3)ncnc2c1OC (single isomer, unassigned) [23 Stereoisomer 1] | 500 | 70 | 240
11 | COc1ccc2c(N(C)C3CCOC3C)ncnc2c1OC (single isomer, unassigned) [22 Stereoisomer 1] | 79 | 28 | 110
12 | COc1ccc2c(N(CC3CC3)[C@H]3CCOC3)ncnc2c1OC [Compound 11, (S)-N-(cyclopropylmethyl)-7,8-dimethoxy-N-(tetrahydrofuran-3-yl)quinazolin-4-amine] | 1600 | 420 | 850
13 | COc1ccc2c(N(C)[C@H]3CCOC3)ncnc2c1OC (single isomer, unassigned) [4 Stereoisomer 2] | 140 | 80 | 1400
14 | COc1ccc2c(NC3CCOC3)ncnc2c1OC (racemic) [Compound 1, 7,8-Dimethoxy-N-(tetrahydrofuran-3-yl)quinazolin-4-amine] | 590 | 230 | 1200
15 | COc1ccc2c(N(Cc3ccccc3)[C@H]3CCOC3)ncnc2c1OC [Compound 10, (S)-N-benzyl-7,8-dimethoxy-N-(tetrahydrofuran-3-yl)quinazolin-4-amine] | 1400 | 360 | 820
16 | COc1ccc2c(N(C)C3CCOC3C)ncnc2c1OC (single isomer, unassigned) [22 Stereoisomer 2] | 55 | 35 | 210
17 | COc1ccc2c(NC3(C)CCOC3)ncnc2c1OC (stereo not shown) [Compound 6, 7,8-dimethoxy-N-(3-methyltetrahydrofuran-3-yl)quinazolin-4-amine] | 160 | 62 | 150
18 | COc1ccc2c(NC3(C)CCOC3C)ncnc2c1OC (single isomer, unassigned) [5 Stereoisomer 3] | 67 | 6 | 33
19 | COc1ccc2c(NC3CCOC3C)ncnc2c1OC (single isomer, unassigned) [3 Stereoisomer 2] | 310 | 94 | 490
20 | COc1ccc2c(NC3CCOC3)ncnc2c1OC (single isomer, unassigned) [1 Stereoisomer 2] | 1200 | 600 | 1900
21 | COc1ccc2c(N(C)C3(C)CCOC3)ncnc2c1OC (single isomer, unassigned) [23 Stereoisomer 2] | 170 | 55 | 160

Row | SMILES | IC50 (PDE1C) [nM] | IC50 (PDE1B) [nM] | IC50 (PDE1A) [nM]
22 | COc1ccc2c(N(C)C3CCOC3C)ncnc2c1OC (single isomer, unassigned) [22 Stereoisomer 4] | 780 | 1100 | 1500
23 | COc1ccc2c(NC3CCOC3C)ncnc2c1OC (single isomer, unassigned) [3 Stereoisomer 4] | 270 | 120 | 580
24 | COc1ccc2c(N(C)C3CCOC3)ncnc2c1OC (stereo not shown) [Compound 4, 7,8-Dimethoxy-N-methyl-N-(tetrahydrofuran-3-yl)quinazolin-4-amine] | 140 | 84 | 360
25 | CCCN(c1ncnc2c(OC)c(OC)ccc12)[C@H]1CCOC1 [Compound 9, (S)-7,8-dimethoxy-N-propyl-N-(tetrahydrofuran-3-yl)quinazolin-4-amine] | 540 | 180 | 280
26 | COc1ccc2c(N(C)[C@@H]3CCOC3)ncnc2c1OC (single isomer, unassigned) [4 Stereoisomer 1] | 140 | 80 | 370
27 | COc1ccc2c(NC3CCOC3)ncnc2c1OC (single isomer, unassigned) [1 Stereoisomer 1] | 280 | 54 | 280
28 | COc1ccc2c(NC3(C)CCOC3)ncnc2c1OC (single isomer, unassigned) [6 Stereoisomer 2] | 110 | 37 | 140
29 | CCCN(c1ncnc2c(OC)c(OC)ccc12)[C@@H]1CCOC1 [Compound 14, (R)-7,8-dimethoxy-N-propyl-N-(tetrahydrofuran-3-yl)quinazolin-4-amine] | 360 | 180 | 270
30 | COc1ccc2c(NC3CCOC3C)ncnc2c1OC (single isomer, unassigned) [3 Stereoisomer 1] | 3000 | 1200 | 2500
31 | COc1ccc2c(N(C)C3(C)CCOC3C)ncnc2c1OC (single isomer, unassigned) [20 Stereoisomer 1] | 33 | 5 | 19
32 | COc1ccc2c(N(Cc3ccccc3)[C@@H]3CCOC3)ncnc2c1OC [Compound 16, (R)—N-benzyl-7,8-dimethoxy-N-(tetrahydrofuran-3-yl)quinazolin-4-amine] | 1600 | 410 | 1200
33 | COc1ccc2c(NC3CCOC3C)ncnc2c1OC (single isomer, unassigned) [3 Stereoisomer 3] | 390 | 100 | 890
34 | COc1ccc2c(NC3(C)CCOC3C)ncnc2c1OC (mixture of isomers) [Compound 5, N-(2,3-dimethyltetrahydrofuran-3-yl)-7,8-dimethoxyquinazolin-4-amine] | 130 | 33 | 130
35 | CCN(c1ncnc2c(OC)c(OC)ccc12)[C@@H]1CCOC1 [Compound 13, (R)—N-ethyl-7,8-dimethoxy-N-(tetrahydrofuran-3-yl)quinazolin-4-amine] | 1500 | 600 | 1200
36 | COc1ccc2c(NC3(C)CCOC3C)ncnc2c1OC (single isomer, unassigned) [5 Stereoisomer 4] | 140 | 15 | 77
37 | COc1ccc2c(NC3CCOC3(C)C)ncnc2c1OC (single isomer, unassigned) [21 Stereoisomer 1] | 2800 | 780 | 1500
38 | CCC1(Nc2ncnc3c(OC)c(OC)ccc23)CCOC1 (stereo not shown) [Compound 24, N-(3-Ethyltetrahydrofuran-3-yl)-7,8-dimethoxyquinazolin-4-amine] | 220 | 63 | –
39 | COc1ccc2c(N(C)C3(C)CCOC3C)ncnc2c1OC (single isomer, unassigned) [20 Stereoisomer 3] | 890 | 190 | 440
40 | CCN(c1ncnc2c(OC)c(OC)ccc12)[C@H]1CCOC1 [Compound 8, (S)-N-ethyl-7,8-dimethoxy-N-(tetrahydrofuran-3-yl)quinazolin-4-amine] | 510 | 250 | 480
41 | COc1ccc2c(N[C@@H]3COC[C@H]3OC)ncnc2c1OC (relative stereo) [Compound 17, Trans-7,8-dimethoxy-N-(4-methoxytetrahydrofuran-3-yl)quinazolin-4-amine] | 1300 | 520 | 2200
42 | COc1ccc2c(NC3(C)CCOC3)ncnc2c1OC (single isomer, unassigned) [6 Stereoisomer 1] | 400 | 110 | 290
